From patent publication US8815849B2, “Hetero-bicyclic derivatives as HCV inhibitors” (Janssen R&D Ireland, priority 2010, dated 2014)
Read-outs that look alike come from different tables or passages of the source.

Key:
[1] = test system: HCV replicon (Huh-Luc cells, NS3-NS5B regions of HCV type 1b); assay: HCV replicon assay (Huh-7 luc/neo, luciferase readout); assay type: cell-based; conditions: Huh-Luc replicon cells, three days incubation, luciferase activity, average if tested more than once, read-out: HCV-REP-HUH7LUC_EC50
Text: The in vitro antiviral activity against HCV of the compounds of formula I can be tested in a cellular HCV replicon system based on Lohmann et al. (1999) Science 285:110-113, with the further modifications described by Krieger et al. (2001) Journal of Virology 75: 4614-4624 (incorporated herein by reference), which is further exemplified in the examples section. This model, while not a complete infection model for HCV, is widely accepted as the most robust and efficient model of autonomous HCV RNA replication currently available. It will be appreciated that it is important to distinguish between compounds that specifically interfere with HCV functions from those that exert cytotoxic or cytostatic effects in the HCV replicon model, and as a consequence cause a decrease in HCV RNA or linked reporter enzyme concentration. Assays are known in the field for the evaluation of cellular cytotoxicity based for example on the activity of mitochondrial enzymes using fluorogenic redox dyes such as resazurin. Furthermore, cellular counter screens exist for the evaluation of non-selective inhibition of linked reporter gene activity, such as firefly luciferase. Appropriate cell types can be equipped by stable transfection with a luciferase reporter gene whose expression is dependent on a constitutively active gene promoter, and such cells can be used as a counter-screen to eliminate non-selective inhibitors.
The compounds of formula (I) were examined for inhibitory activity in the HCV replicon. This cellular assay is based on a bicistronic expression construct, as described by Lohmann et al. (1999) Science vol. 285 pp. 110-113 with modifications described by Krieger et al. (2001) Journal of Virology 75: 4614-4624, in a multi-target screening strategy.
The assay utilized the stably transfected cell line Huh-7 luc/neo (hereafter referred to as Huh-Luc). This cell line harbors an RNA encoding a bicistronic expression construct comprising the wild type NS3-NS5B regions of HCV type 1b translated from an
Internal Ribosome Entry Site (IRES) from encephalomyocarditis virus (EMCV), preceded by a reporter portion (FfL-luciferase), and a selectable marker portion (neo^R, neomycine phosphotransferase). The construct is flanked by 5′ and 3′ NTRs (non-translated regions) from HCV type 1b. Continued culture of the replicon cells in the presence of G418 (neo^R) is dependent on the replication of the HCV RNA. The stably transfected replicon cells that express HCV RNA, which replicates autonomously and to high levels, encoding inter alia luciferase, were used for screening the antiviral compounds.
The replicon cells were plated in 384 well plates in the presence of the test and control compounds which were added in various concentrations. Following an incubation of three days, HCV replication was measured by assaying luciferase activity (using standard luciferase assay substrates and reagents and a Perkin Elmer ViewLux™ ultraHTS microplate imager). Replicon cells in the control cultures have high luciferase expression in the absence of any inhibitor. The inhibitory activity of the compound on luciferase activity was monitored on the Huh-Luc cells, enabling a dose-response curve for each test compound. EC50 values were then calculated, which represent the amount of compound required to decrease the level of detected luciferase activity by 50%, or more specifically, to reduce the ability of the genetically linked HCV replicon RNA to replicate.
Where a compound of formula (I) was tested more than once in the replicon assay, the average of all test results is given in this Table 1.

LLC-MDR1 monolayers = assay type: in vitro ADME; conditions: pig, LLC-PK1, 120 min
Description: Assay Description for the Measurement of Transepithelial Transport of Test Compounds Through LLC-MDR1 Monolayers
The integrity of the cellular monolayer was assessed in each incubation well through the inclusion of the fluorescent, low permeability marker compound, Fluorescein.
In detail, LLC-MDR1 cells (LLC-PK1 cells stably transduced with MDR1 in a trans-well system) were seeded on 24-well cell culture inserts (Millicell®-PCF, 0.4 μm, 13 mm Ø, 0.7 cm^2) at 400 000 cells/cm^2. Cell culture medium consists of Medium 199 supplemented with 10% Fetal Bovine Serum (FBS) and 100 U/mL Penicillin/streptomycin and was replaced the day after seeding and the day before the experiment. The transport experiment was performed 5 days after seeding. On the day of the experiment, solutions of the test compounds were applied to the apical side of the monolayers to assess transport in the AtoB direction,. The medium used in the assay was (OPTI-MEM (1×) (GIBCO) with 1 w/v % Bovine Serum Albumin. Inserts were incubated at 37° C. in a humidified incubator containing 5% CO2. Samples from the acceptor and donor compartments were collected after an incubation time of 120 min, to assess the permeability and to allow estimation of the test compound recovery during the experiment, respectively. Transport experiments were performed in triplicate. Absolute test compound concentrations were measured using LC-MS/MS and quantified via a calibration curve.

SMILES: COC(=O)N[C@H](C(=O)N1CCC[C@H]1c1ncc(-c2ccc3cc(-c4ccc5c(=O)[nH]c([C@@H]6CCCN6C(=O)[C@@H](NC(=O)OC)C(C)C)nc5c4)ccc3c2)[nH]1)C(C)C [Compound 44]
- EC50 ([1]; Hepatitis C virus, Huh-7, 72 h): 0.005 nM
- A->B permeability (Papp × 10^−6 cm/sec) in the presence the P-gp inhibitor GF120918 (LLC-MDR1 monolayers): 6.9 10^−6 cm/sec

SMILES: COC(=O)N[C@H](C(=O)N1CCC[C@H]1c1ncc(-c2ccc3cc(-c4ccc5nc([C@@H]6CCCN6C(=O)[C@@H](NC(=O)OC)C(C)C)[nH]c(=O)c5c4)ccc3c2)[nH]1)C(C)C [Compound 35]
- EC50 ([1]; Hepatitis C virus, Huh-7, 72 h): 0.64 nM
- A->B permeability (Papp × 10^−6 cm/sec) in the presence the P-gp inhibitor GF120918 (LLC-MDR1 monolayers): 5.0 10^−6 cm/sec

SMILES: COC(=O)N[C@H](C(=O)N1CCC[C@H]1C1=Nc2cc(-c3ccc4cc(-c5cnc([C@@H]6CCCN6C(=O)[C@@H](NC(=O)OC)C(C)C)[nH]5)ccc4c3)ccc2C(C)(C)N1)C(C)C [Compound 61]
- EC50 ([1]; Hepatitis C virus, Huh-7, 72 h): 0.017 nM
- A->B permeability (Papp × 10^−6 cm/sec) in the presence the P-gp inhibitor GF120918 (LLC-MDR1 monolayers): 4.8 10^−6 cm/sec

SMILES: COC(=O)N[C@H](C(=O)N1CCC[C@H]1c1ncc(-c2ccc3cc(-c4ccc5c(=O)[nH]c([C@@H]6CC(C)(C)CN6C(=O)[C@@H](NC(=O)OC)C(C)C)nc5c4)ccc3c2)[nH]1)C(C)C [Compound 50]
- EC50 ([1]; Hepatitis C virus, Huh-7, 72 h): 0.006 nM
- A->B permeability (Papp × 10^−6 cm/sec) in the presence the P-gp inhibitor GF120918 (LLC-MDR1 monolayers): 5.8 10^−6 cm/sec

SMILES: COC(=O)N[C@H](C(=O)N1CCC[C@H]1C1=Nc2cc(-c3ccc4cc(-c5cnc([C@@H]6CCCN6C(=O)[C@@H](NC(=O)OC)C(C)C)[nH]5)ccc4c3)ccc2C2(COC2)N1)C(C)C [Compound 70]
- EC50 ([1]; Hepatitis C virus, Huh-7, 72 h): 0.009 nM
- A->B permeability (Papp × 10^−6 cm/sec) in the presence the P-gp inhibitor GF120918 (LLC-MDR1 monolayers): 7.8 10^−6 cm/sec

SMILES: COC(=O)N[C@H](C(=O)N1CCCC1c1cc(=O)c2ccc(-c3ccc4cc(-c5cnc([C@@H]6CCCN6C(=O)[C@@H](NC(=O)OC)C(C)C)[nH]5)ccc4c3)cc2[nH]1)C(C)C (single isomer, unassigned) [Compound 13b]
- EC50 ([1]; Hepatitis C virus, Huh-7, 72 h): 0.022 nM
- A->B permeability (Papp × 10^−6 cm/sec) in the presence the P-gp inhibitor GF120918 (LLC-MDR1 monolayers): 0.5 10^−6 cm/sec

SMILES: COC(=O)N[C@H](C(=O)N1CCCC1c1[nH]c2cc(-c3ccc4cc(-c5cnc([C@@H]6CCCN6C(=O)[C@@H](NC(=O)OC)C(C)C)[nH]5)ccc4c3)ccc2c(=O)c1F)C(C)C (single isomer, unassigned) [Compound 110a]
- EC50 [1]: 0.048 nM
- A->B permeability (Papp × 10^−6 cm/sec) in the presence the P-gp inhibitor GF120918 (LLC-MDR1 monolayers): 0.4 10^−6 cm/sec

SMILES: COC(=O)N[C@H](C(=O)N1CCCC1c1[nH]c2cc(-c3ccc4cc(-c5cnc([C@@H]6CCCN6C(=O)[C@@H](NC(=O)OC)C(C)C)[nH]5)ccc4c3)ccc2c(=O)c1F)C(C)C (single isomer, unassigned) [Compound 110b]
- EC50 [1]: 0.48 nM
- A->B permeability (Papp × 10^−6 cm/sec) in the presence the P-gp inhibitor GF120918 (LLC-MDR1 monolayers): 2.3 10^−6 cm/sec

SMILES: COC(=O)N[C@H](C(=O)N1CCC[C@H]1c1ncc(-c2ccc3cc(-c4ccc5c(=O)[nH]c([C@@H]6CCCN6C(=O)[C@H](NC(=O)OC(C)(C)C)c6ccccc6)nc5c4)ccc3c2)[nH]1)C(C)C [Compound 44-1]
- EC50 ([1]; Hepatitis C virus, Huh-7, 72 h): 8.1 nM
- A->B permeability (Papp × 10^−6 cm/sec) in the presence the P-gp inhibitor GF120918 (LLC-MDR1 monolayers): 2.7 10^−6 cm/sec

SMILES: COC(=O)N[C@H](C(=O)N1CCCCC1c1cc(=O)c2ccc(-c3ccc4cc(-c5cnc([C@@H]6CCCN6C(=O)[C@@H](NC(=O)OC)C(C)C)[nH]5)ccc4c3)cc2[nH]1)C(C)C (some centres unmarked) [Compound 76]
- EC50 ([1]; Hepatitis C virus, Huh-7, 72 h): 0.034 nM
- A->B permeability (Papp × 10^−6 cm/sec) in the presence the P-gp inhibitor GF120918 (LLC-MDR1 monolayers): 3.1 10^−6 cm/sec

SMILES: COC(=O)N[C@H](C(=O)N1CCC[C@H]1C1=NS(=O)(=O)c2ccc(-c3ccc4cc(-c5cnc([C@@H]6CCCN6C(=O)[C@@H](NC(=O)OC)C(C)C)[nH]5)ccc4c3)cc2N1)C(C)C [Compound 84]
- EC50 ([1]; Hepatitis C virus, Huh-7, 72 h): 0.034 nM
- A->B permeability (Papp × 10^−6 cm/sec) in the presence the P-gp inhibitor GF120918 (LLC-MDR1 monolayers): 0.4 10^−6 cm/sec

SMILES: COC(=O)N[C@H](C(=O)N1CCCC1c1[nH]c2cc(-c3ccc4cc(-c5cnc([C@@H]6CCCN6C(=O)[C@@H](NC(=O)OC)C(C)C)[nH]5)ccc4c3)ccc2c(=O)c1C)C(C)C (single isomer, unassigned) [Compound 102a]
- EC50 ([1]; Hepatitis C virus, Huh-7, 72 h): 0.069 nM
- A->B permeability (Papp × 10^−6 cm/sec) in the presence the P-gp inhibitor GF120918 (LLC-MDR1 monolayers): <0.6 10^−6 cm/sec

SMILES: COC(=O)N[C@H](C(=O)N1CCC[C@H]1c1ncc(-c2ccc3cc(-c4ccc5c(c4)NC([C@@H]4CCCN4C(=O)[C@H](NC(=O)OC)c4ccccc4)=NS5(=O)=O)ccc3c2)[nH]1)C(C)C [Compound 87]
- EC50 ([1]; Hepatitis C virus, Huh-7, 72 h): 0.008 nM
- A->B permeability (Papp × 10^−6 cm/sec) in the presence the P-gp inhibitor GF120918 (LLC-MDR1 monolayers): 1.0 10^−6 cm/sec
